One series deals with α7 nAChR (Rattus norvegicus, UniProt Q05941). The series is classed as binding. The conditions noted are these: for RELATIVE A7/A4B2 SELECTIVITY / Ki: rat brain membranes; for RELATIVE A7/A4B2 SELECTIVITY: Ki alpha4beta2 / Ki alpha7, divided by the alpha7 selectivity of DMXBA (1.95), DMXBA set to 1.00; for Ki α4β2/α7 Ratio: alpha7 selectivity, not normalized with respect to DMXBA selectivity; for Ki: [125I]alpha-bungarotoxin, n = 2.

The target of another series is α4β2 nAChR (Rattus norvegicus, UniProt P09483+P12390). The series is described as follows: Radioligand binding, displacement of [3H]cytisine from rat brain membranes. Conditions: n = 2. As to the method:
Assays were performed using the experimental compound to compete for its nAChR binding site with a radioligand that specifically labels either the α4β2 or the α7 nAChR in homogenized Sprague-Dawley rat brain membrane. These assays were used to determine the IC50 of the experimental compounds, which is then used to determine the KI with the Cheng-Prusoff equation.
The 3-arylidene-anabaseine compound was suspended in 50 mM Tris binding saline, with 2 mg/ml BSA, if it was a salt, or in methanol if it was a free base, and dilutions were made in 2 mg/ml BSA Tris binding saline. The final solutions were incubated at 37° C. for approximately 2.5 hours. Once the reaction was assumed to be at equilibrium, it was stopped by harvesting the tissue onto GF/C filters, which were soaked for 45 minutes in a 0.5% polyethylenamine solution to reduce non-specific binding of the radioligand to the filter, using a Brandel tissue harvester. The filters were then placed in gamma tubes and counted on a Beckman counter for 5 minutes per sample. The counts per minute were then assessed, the results were entered, and the IC50s and KIs were determined using the software program Graphpad Prism®. The [^3H]cytisine experiments were performed in a similar manner. First the addition of all of the components: 1 nM [^3H]cytisine, 3-benzylidene-3-arylidene-anabaseine compound (5 nM-50 μM), 0.2 mg rat brain homogenate, and 2 mg/ml BSA Tris solution at a pH of 7.4 to bring the final volume up to 0.5 ml in each tube.
To assess non-specific binding, 1 mM nicotine was added in place of the 3-arylidene-anabaseine. To assess total binding, only the radioligand, tissue, and BSA Tris solution were added. The incubation time and the temperature were altered in this protocol to produce the greatest difference between total and non-specific binding and to maximize the affinity of the radioligand for the receptor, respectively. The incubation time for [^3H]cytisine was 4 hours at 4° C. […] The counts per minute were entered into GraphPad Prism® where the IC50s and the KIs were assessed.
Rat brain membrane was obtained frozen from Pel-Freez Biologicals (Rogers, Ariz.). The protein concentration of the rat brain homogenate was assessed using the bicinchoninic acid (BCA) protein assay kit from Pierce (Rockford, Ill.).
Displacement of ^125I-labelled alpha-bungarotoxin (BTX) measured binding to alpha7 receptors; displacement of [^3H]-labelled cytisine measured binding to alpha4beta2 receptors. […] Nonspecific binding of each radioligand was measured in the presence of 1.0 mM nicotine. […] Bound [3H] […] was measured in a liquid scintillation counter, whereas [125]BTX was measured with use of a Biogamma counter (both from Beckman Coulter).
(In general: Loss of bound radioactivity is the signal in a displacement assay; it reports binding, not function.)

Series [1] is described as follows: Octanol/water partition coefficient by RP-HPLC. Conditions: 1-octanol/sodium phosphate buffer; 1-octanol / 10 mM sodium phosphate buffer pH 7.4 with 150 mM NaCl, corrected for ionization. The series is classed as physicochemical. On the procedure:
P is the ratio of the concentration of an un-ionized form of a compound in octanol relative to the unionized concentration of the compound in an aqueous phase containing 150 mM NaCl (to approximate physiological conditions), after the two phases have equilibrated. Log P values were determined for each test compound by RP-HPLC analysis. Approximately 1 mg of each compound was weighed out and placed in equal volumes, 3 ml 10 mM sodium phosphate buffer, pH 7.4, which contained 150 mM NaCl, and 1-octanol. Previously, equal volumes of the sodium phosphate buffer and 1-octanol were added to a separatory funnel and allowed to equilibrate overnight. The equilibrated sodium phosphate buffer was checked prior to its addition to the compound for a pH of 7.4. Once these phases were added to the weighed compound, the solutions were allowed to equilibrate overnight on a gentle shaker at room temperature. The samples were centrifuged at […] for 5 minutes and octanol phase carefully removed with a Pasteur pipette. The pH of the water phase was remeasured in order to calculate the corrected Log P value.
Since large concentrations of octanol cannot be directly injected into the HPLC without affecting the elution of the compound being measured, the compound was extracted from the separated octanol phase with an acidic 150 mM NaCl solution adjusted to a pH of approximately 2.6 (with 100 mM glacial acetic acid). The acidic saline solution was allowed to gently mix with the octanol phase for 20 minutes on a shaker at room temperature. The samples containing the octanol and acidic saline phases were then centrifuged at 1,000×g for 5 minutes and the upper octanol phase was carefully removed with a Pasteur pipette. This back extraction step was repeated at least two and sometimes three times. All three or four back extracted solutions for a particular compound were then combined. Both the original aqueous and the back extracted octanol phases were then diluted with 50 mM ammonium acetate buffer, pH 4.5. The diluted samples were then transferred by pipette to autosampler tubes and subsequently […] of each diluted sample was injected into the HPLC. The area under the curve (AUC) of an absorbance peak was determined for samples from both (octanol and aqueous) of the original phases. Taking into account the dilutions of each sample phase during its preparation for HPLC determination, Log P (taking into consideration the percent ionization at pH 7.4) was then calculated.

Series [2] can be described thus: Spectrophotometric pKa determination of the imine nitrogen. The series is classed as physicochemical. The conditions noted are these: for % ionized: percent ionization at pH 7.4. As to the method:
Thirteen different pH values in the titration region were evaluated (pH: 4, 5, 6, 7, 7.2, 7.5, 7.8, 8, 8.2, 8.5, 8.8, 9, 10). A specific concentration of 3-benzylidene-3-arylidene-anabaseine compound, 1.3×10^−3 M, was added to the potassium phosphate buffers at varied pH values. Each tube was then vortexed and immediately read in a Beckman spectrophotometer. The same glass cuvette was used with every sample. The glass cuvette was thoroughly rinsed with distilled deionized water between different pH samples. The wavelength scan was set to a range of 250-600 nm. The pH with the highest change in absorbance was determined. The wavelength at the highest change in absorbance and the absorbance values for all of the different pH samples at this wavelength were entered into the Enzfitter software (Elsevier-Biosoft, Cambridge, UK) in order to estimate each pKa value.

Setting [3] is: imine nitrogen, room temperature, 50 mM potassium phosphate buffer, 150 mM NaCl.

Structures can show the parent of a compound that is named as a salt. Where two headings read alike, the source gives them in different places.

α4β2 nAChR, sequence (P09483 31-630): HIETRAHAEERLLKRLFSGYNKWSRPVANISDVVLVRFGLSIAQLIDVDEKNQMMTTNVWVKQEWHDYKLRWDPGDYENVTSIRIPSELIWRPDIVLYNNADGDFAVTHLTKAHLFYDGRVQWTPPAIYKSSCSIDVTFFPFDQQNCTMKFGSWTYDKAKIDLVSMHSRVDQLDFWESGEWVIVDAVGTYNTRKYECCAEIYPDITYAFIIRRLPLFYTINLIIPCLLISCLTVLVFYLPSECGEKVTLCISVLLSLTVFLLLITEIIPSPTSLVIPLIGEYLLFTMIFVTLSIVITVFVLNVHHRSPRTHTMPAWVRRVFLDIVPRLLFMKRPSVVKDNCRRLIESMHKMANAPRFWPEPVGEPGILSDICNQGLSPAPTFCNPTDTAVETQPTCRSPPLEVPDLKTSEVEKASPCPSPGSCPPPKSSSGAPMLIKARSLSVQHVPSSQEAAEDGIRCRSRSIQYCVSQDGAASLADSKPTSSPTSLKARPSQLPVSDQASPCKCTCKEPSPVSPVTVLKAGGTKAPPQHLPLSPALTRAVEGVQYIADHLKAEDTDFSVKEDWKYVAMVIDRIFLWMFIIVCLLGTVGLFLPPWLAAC
α4β2 nAChR, sequence (P12390 25-500): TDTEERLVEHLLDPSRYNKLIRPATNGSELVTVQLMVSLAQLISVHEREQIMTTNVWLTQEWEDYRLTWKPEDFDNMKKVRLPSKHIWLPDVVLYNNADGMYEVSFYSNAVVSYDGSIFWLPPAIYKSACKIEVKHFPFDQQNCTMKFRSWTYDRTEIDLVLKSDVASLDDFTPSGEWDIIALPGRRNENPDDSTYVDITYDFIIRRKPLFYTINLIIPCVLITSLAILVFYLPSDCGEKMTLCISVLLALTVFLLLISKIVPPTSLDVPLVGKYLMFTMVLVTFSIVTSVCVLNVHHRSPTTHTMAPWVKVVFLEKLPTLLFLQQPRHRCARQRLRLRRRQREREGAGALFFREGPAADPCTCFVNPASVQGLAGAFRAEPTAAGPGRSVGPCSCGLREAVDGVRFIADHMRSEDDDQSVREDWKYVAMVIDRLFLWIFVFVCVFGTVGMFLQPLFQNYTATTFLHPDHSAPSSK
α7 nAChR, sequence (Q05941 23-502): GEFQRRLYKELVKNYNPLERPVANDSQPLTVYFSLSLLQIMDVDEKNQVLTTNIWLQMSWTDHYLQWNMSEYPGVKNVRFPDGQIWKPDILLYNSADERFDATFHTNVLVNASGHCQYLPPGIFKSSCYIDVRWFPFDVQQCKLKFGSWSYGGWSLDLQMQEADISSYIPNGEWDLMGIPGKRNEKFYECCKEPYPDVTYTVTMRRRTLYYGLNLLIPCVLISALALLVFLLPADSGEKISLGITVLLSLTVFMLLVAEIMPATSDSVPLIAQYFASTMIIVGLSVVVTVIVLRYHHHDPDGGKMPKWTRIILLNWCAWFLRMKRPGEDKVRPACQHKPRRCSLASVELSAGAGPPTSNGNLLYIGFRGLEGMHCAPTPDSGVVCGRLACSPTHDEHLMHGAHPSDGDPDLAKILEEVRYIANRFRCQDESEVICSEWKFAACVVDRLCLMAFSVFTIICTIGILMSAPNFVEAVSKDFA

Consider `c1cncc(C2=NCCCC2)c1` [Anabaseine, reference compound], for which the “RELATIVE A7/A4B2 SELECTIVITY” value on α7 nAChR was 0.69.
In the case of `COc1ccc(C=C2C(c3cccnc3)=NCCC2C)c(OC)c1` (stereo not drawn) [Most selective enantiomer of 4-Methyl-DMXBA, 3-(2,4-dimethoxybenzylidene)-(4-methyl)-3,4,5,6-tetrahydro-2,3′-bipyridine], at α7 nAChR, the “RELATIVE A7/A4B2 SELECTIVITY” value was determined as 8.34. The “relative alpha7 nAChR (versus alpha4beta2) receptor binding selectivity, higher than that of the other enantiomer” value at α7 nAChR (rat brain nAChR, compared with the other enantiomer) was determined as 6.5 fold.
For the molecule `CC1CCCC(c2cccnc2)=N1` (racemic) [(S,R)-6-Methyl-Anabaseine, 6-methyl-anabaseine], on α7 nAChR, the “RELATIVE A7/A4B2 SELECTIVITY” value is listed as 1.19.
On the same count and under the same terms, as for `COc1ccc(C=C2CC(C)CN=C2c2cccnc2)c(OC)c1` (stereo not drawn) [Least selective enantiomer of 5-Methyl-DMXBA, 3-(2,4-dimethoxybenzylidene)-(5-methyl)-3,4,5,6-tetrahydro-2,3′-bipyridine], the figure is 1.03.
On α4β2 nAChR, `C(=C1/CCCN=C1c1cccnc1)/c1ccc2c(c1)OCO2` [3-[3,4-(Methylenedioxy)benzylidene]-anabaseine] displayed a Ki of 0.7 ± 0.07 µM. For the same molecule, on α7 nAChR, the “Ki α4β2/α7 Ratio” value was determined as 3.04 and the Ki is 0.23 ± 0.002 µM. This molecule also registered a logP in series [1] of 2.43. Also, the pKa in series [2] (setting [3]) was 7.64 ± 0.04. For the same molecule, in series [2], the “% ionized” value was determined as 63.48%.
On to 4′-Methyl-DMXBA, for which the “RELATIVE A7/A4B2 SELECTIVITY” value on α7 nAChR is 14.8.
Still for that read-out and setting: as for `COc1cc(O[C@@H]2O[C@H](C(=O)O)[C@@H](O)[C@H](O)[C@H]2O)ccc1C=C1CCCN=C1c1cccnc1` [3-(4-Beta-Glucuronidyl-2-methoxyB)A, 3-(4-Glucuronido-2-methoxybenzylidene)-anabaseine], the figure is 9.40.
At α4β2 nAChR, `COc1ccc2cc(/C=C3\CCCN=C3c3cccnc3)ccc2c1` [3-[(6-Methoxy-naphth-2-yl)-methylene]-anabaseine dihydrochloride] showed an inhibition constant Ki of 0.6 ± 0.1 µM. Moreover, on α7 nAChR, the “Ki α4β2/α7 Ratio” value came to 1.62 and the affinity, expressed as Ki, was 0.37 ± 0.03 µM. In series [1], this molecule yielded a log partition coefficient (logP) of 2.65. The pKa in series [2] (setting [3]) came to 7.29 ± 0.12. Moreover, the “% ionized” value in series [2] turned out to be 43.67%.
For the molecule `COc1ccc(C=C2CCC(C)N=C2c2cccnc2)c(OC)c1` (stereo not drawn) [Least selective enantiomer of 6-Methyl-DMXBA, 3-(2,4-dimethoxybenzylidene)-(6-methyl)-3,4,5,6-tetrahydro-2,3′-bipyridine], the “RELATIVE A7/A4B2 SELECTIVITY” value at α7 nAChR came to 2.93.
On the same count and under the same terms, next, `COc1ccc(C=C2CC(C)CN=C2c2cccnc2)c(OC)c1` (stereo not drawn) [Most selective enantiomer of 5-Methyl-DMXBA, 3-(2,4-dimethoxybenzylidene)-(5-methyl)-3,4,5,6-tetrahydro-2,3′-bipyridine]: 2.34; `COc1ccc(C=C2CC(C)CN=C2c2cccnc2)c(OC)c1` (racemic) [(S,R)-5-Methyl-DMXBA, 3-(2,4-dimethoxybenzylidene)-(5-methyl)-3,4,5,6-tetrahydro-2,3′-bipyridine]: 1.31; `CC1CCN=C(c2cccnc2)C1` (racemic) [(S,R)-4-Methyl-Anabaseine, 4-Methyl-anabaseine]: 0.69.
On the same count and under the same terms, next, `CC1CCC(c2cccnc2)=NC1` (racemic) [(S,R)-5-Methyl-Anabaseine, 5-Methyl-Anabaseine]: 0.38.
Take `C(=C1/CCCN=C1c1cccnc1)/c1cc2ccccc2o1` [3-[(Benzofuran-2-yl)methylene]-anabaseine]: on α4β2 nAChR, the affinity, expressed as Ki, was 5.92 ± 1.06 µM. At α7 nAChR, the “Ki α4β2/α7 Ratio” value is listed as 39.5 and the Ki was determined as 0.15 ± 0.003 µM. This molecule also returned a logP in series [1] of 3.86 ± 0.4. Moreover, the PKa in series [2] (setting [3]) was 9/2/04. Further, the “% ionized” value in series [2] worked out at 33.90%.
With `COc1ccc(C=C2CCC(C)N=C2c2cccnc2)c(OC)c1` (stereo not drawn) [Most selective enantiomer of 6-Methyl-DMXBA, 3-(2,4-dimethoxybenzylidene)-(6-methyl)-3,4,5,6-tetrahydro-2,3′-bipyridine], the “RELATIVE A7/A4B2 SELECTIVITY” value on α7 nAChR was found to be 5.34.
For `COc1ccc(C=C2C(c3cccnc3)=NCCC2C)c(OC)c1` (racemic) [(S,R)-4-Methyl-DMXBA, 3-(2,4-dimethoxybenzylidene)-(4-methyl)-3,4,5,6-tetrahydro-2,3′-bipyridine], at α7 nAChR, the “RELATIVE A7/A4B2 SELECTIVITY” value turned out to be 4.10.
Still for that read-out and setting: as for `COc1ccc(C=C2CCC(C)N=C2c2cccnc2)c(OC)c1` (racemic) [(S,R)-6-Methyl-DMXBA, 3-(2,4-dimethoxybenzylidene)-(6-methyl)-3,4,5,6-tetrahydro-2,3′-bipyridine], the figure is 3.67.
In the case of `COc1ccc(C=C2C(c3cccnc3)=NCCC2C)c(OC)c1` (stereo not drawn) [Least selective enantiomer of 4-Methyl-DMXBA, 3-(2,4-dimethoxybenzylidene)-(4-methyl)-3,4,5,6-tetrahydro-2,3′-bipyridine], on α7 nAChR (listed as 4-methyl-DMXBA enantiomer which had a longer retention time), the “RELATIVE A7/A4B2 SELECTIVITY” value worked out at 1.28.
On to `COc1ccc(/C=C2\CCCN=C2c2cccnc2)c(OC)c1` [DMXBA (GTS-21), (E)-3-(2,4-dimethoxybenzylidene)-3,4,5,6-tetrahydro-2,3′-bipyridine, reference compound], for which the “RELATIVE A7/A4B2 SELECTIVITY” value at α7 nAChR is 1.00.

Broadly, the Ki is the equilibrium dissociation constant of an inhibitor or competing ligand from its target. The term logP denotes the decadic logarithm of the partition coefficient of the neutral form, usually between octanol and water. Lower therefore signals a more hydrophilic compound. As a reminder, the pKa is the pH at which an ionisable group is half protonated. The low end stands for a stronger acid or weaker base, the high end for a weaker acid or stronger base.

The values are drawn from patent publication US8592458B2 (priority 2005, dated 2013).
